Experiments:
[1] = Inhibition of Escherichia coli […] expressed in Escherichia coli BL21 (DE3) assessed as reduction in PNP formation using beta-PNPG as substrate incubated for 30 mins
Escherichia coli [2] = test: Inhibition of recombinant Escherichia coli […] expressed in Escherichia coli BL21(DE3) assessed as reduction in PNP formation at 10 uM using beta-PNPG as substrate incubated for 30 mins relative to control
[3] = Inhibition of Saccharomyces cerevisiae alpha-glucosidase assessed as reduction in PNP formation using alpha-PNPG as substrate incubated for 30 mins
Saccharomyces cerevisiae [4] = test: Inhibition of Saccharomyces cerevisiae alpha-glucosidase assessed as reduction in PNP formation at 10 uM using alpha-PNPG as substrate incubated for 30 mins relative to control
L02 = test: Cytotoxicity against human L02 cells assessed as reduction in cell viability incubated for 48 hrs by CCK8 assay; format: cell-based; details: L02, 48 h
[5] = Uncompetitive inhibition of recombinant Escherichia coli […] expressed in Escherichia coli […] using beta-PNPG as substrate incubated for 30 mins by Lineweaver-Burk plot analysis
Escherichia coli [6] = test: Potency index, ratio of DSL IC50 to test compound IC50 for inhibition of Escherichia coli […] expressed in Escherichia coli BL21 (DE3) assessed as reduction in PNP formation using beta-PNPG as substrate incubated for 30 mins
[7] = Competitive inhibition of Saccharomyces cerevisiae alpha-glucosidase using alpha-PNPG as substrate incubated for 30 mins by Lineweaver-Burk plot analysis
[8] = Mixed inhibition of recombinant Escherichia coli […] expressed in Escherichia coli BL21(DE3) using beta-PNPG as substrate incubated for 30 mins by Lineweaver-Burk plot analysis
Saccharomyces cerevisiae [9] = test: Potency index, ratio of ACAR IC50 to test compound IC50 for inhibition of Saccharomyces cerevisiae alpha-glucosidase assessed as reduction in PNP formation using alpha-PNPG as substrate incubated for 30 mins

O=C(Sc1nncs1)c1ccc(-c2cccc(F)c2)o1
IC50 [1]: 425 nM | inhibition (Escherichia coli [2]): 95.9% | IC50 [3]: 646 nM | inhibition (Saccharomyces cerevisiae [4]): 82.6%

O=C(Sc1nncs1)c1ccc(-c2ccccc2)o1
IC50 [1]: 1130 nM | inhibition (Escherichia coli [2]): 105% | IC50 [3]: 613 nM | inhibition (Saccharomyces cerevisiae [4]): 79.5%

COc1ccc(-c2ccc(C(=O)Sc3nnc(C)s3)o2)cc1
IC50 [1]: 303 nM | inhibition (Escherichia coli [2]): 87.5% | inhibition (Saccharomyces cerevisiae [4]): 33.1%

Cc1nnc(SC(=O)c2ccc(-c3ccc(Br)cc3)o2)s1
IC50 [1]: 755 nM | inhibition (Escherichia coli [2]): 82.7% | IC50 [3]: 11000 nM | inhibition (Saccharomyces cerevisiae [4]): 50.8%

O=C(Sc1nncs1)c1ccc(-c2ccc([N+](=O)[O-])cc2)o1
IC50 [3]: 1810 nM | inhibition (Saccharomyces cerevisiae [4]): 75.1%

Cc1nnc(SC(=O)c2ccc(-c3cccc(F)c3)o2)s1
IC50 [1]: 82 nM | inhibition (Escherichia coli [2]): 91.7% | IC50 [3]: 2950 nM | IC50 (L02): 86.2 µM | Ki [5]: 60 nM | inhibition (Saccharomyces cerevisiae [4]): 59.1% | Ratio IC50 (Escherichia coli [6]): 820

Cc1nnc(SC(=O)c2ccc(-c3cccc(Cl)c3)o2)s1
IC50 [1]: 551 nM | inhibition (Escherichia coli [2]): 99.6% | IC50 [3]: 728 nM | inhibition (Saccharomyces cerevisiae [4]): 82.5%

C[C@H]1O[C@H](O[C@H]2[C@H](O)[C@@H](O)[C@@H](O[C@H]3[C@H](O)[C@@H](O)C(O)O[C@@H]3CO)O[C@@H]2CO)[C@H](O)[C@@H](O)[C@@H]1N[C@H]1C=C(CO)[C@@H](O)[C@H](O)[C@H]1O (stereo not given in full) [ACARBOSE]
Ki [7]: 378 µM | IC50 [3]: 517000 nM | inhibition (Saccharomyces cerevisiae [4]): 11.1%

Cc1nnc(SC(=O)c2ccc(-c3ccccc3[N+](=O)[O-])o2)s1
IC50 [1]: 564 nM | inhibition (Escherichia coli [2]): 98.5% | IC50 [3]: 658 nM | inhibition (Saccharomyces cerevisiae [4]): 81.6%

O=C(Sc1nncs1)c1ccc(-c2cccc(Cl)c2)o1
IC50 [1]: 148 nM | inhibition (Escherichia coli [2]): 83.8% | IC50 [3]: 680 nM | inhibition (Saccharomyces cerevisiae [4]): 77.1%

O=C(Sc1nncs1)c1ccc(-c2ccccc2F)o1
IC50 [1]: 1140 nM | inhibition (Escherichia coli [2]): 87.8% | IC50 [3]: 1670 nM | inhibition (Saccharomyces cerevisiae [4]): 82.5%

Clc1ccc2c(c1)C(N1CCNCC1)=Nc1ccccc1O2 [AMOXAPINE]
IC50 [1]: 83 nM | inhibition (Escherichia coli [2]): 99.8% | Ki [5]: 50 nM

Cc1nnc(SC(=O)c2ccc(-c3c(F)cccc3F)o2)s1
IC50 [1]: 415 nM | inhibition (Escherichia coli [2]): 96.1% | IC50 [3]: 863 nM | inhibition (Saccharomyces cerevisiae [4]): 90.8%

O=C(Sc1nncs1)c1ccc(-c2ccc(F)cc2)o1
IC50 [1]: 526 nM | inhibition (Escherichia coli [2]): 94.4% | IC50 [3]: 652 nM | inhibition (Saccharomyces cerevisiae [4]): 76.5%

Cc1nnc(SC(=O)c2ccc(-c3ccccc3Cl)o2)s1
IC50 [1]: 230 nM | inhibition (Escherichia coli [2]): 100% | IC50 [3]: 774 nM | inhibition (Saccharomyces cerevisiae [4]): 94.1%

Cc1ccc(-c2ccc(C(=O)Sc3nnc(C)s3)o2)cc1
IC50 [1]: 508 nM | inhibition (Escherichia coli [2]): 85.7% | inhibition (Saccharomyces cerevisiae [4]): 44.4%

Cc1nnc(SC(=O)c2ccc(-c3ccc(F)cc3)o2)s1
IC50 [1]: 796 nM | inhibition (Escherichia coli [2]): 78.8% | IC50 [3]: 1850 nM | inhibition (Saccharomyces cerevisiae [4]): 58.7%

O=C(Sc1nncs1)c1ccc(-c2ccc(Br)cc2)o1
IC50 [1]: 379 nM | inhibition (Escherichia coli [2]): 76.4% | IC50 [3]: 526 nM | inhibition (Saccharomyces cerevisiae [4]): 66.7%

O=C(Sc1nncs1)c1ccc(-c2cccc([N+](=O)[O-])c2)o1
IC50 [1]: 212 nM | inhibition (Escherichia coli [2]): 74.6% | IC50 [3]: 1570 nM | inhibition (Saccharomyces cerevisiae [4]): 79.6%

O=C(Sc1nncs1)c1ccc(-c2ccc(F)cc2F)o1
IC50 [1]: 1260 nM | inhibition (Escherichia coli [2]): 76.4% | IC50 [3]: 1140 nM | inhibition (Saccharomyces cerevisiae [4]): 71%

Cc1ccc(-c2ccc(C(=O)Sc3nncs3)o2)cc1
IC50 [1]: 312 nM | inhibition (Escherichia coli [2]): 90.1% | IC50 [3]: 286 nM | inhibition (Saccharomyces cerevisiae [4]): 78.2%

Cc1nnc(SC(=O)c2ccc(-c3ccc([N+](=O)[O-])cc3)o2)s1
IC50 [1]: 247 nM | inhibition (Escherichia coli [2]): 92.9% | IC50 [3]: 2500 nM | inhibition (Saccharomyces cerevisiae [4]): 62.9%

Cc1nnc(SC(=O)c2ccc(-c3ccccc3)o2)s1
IC50 [1]: 923 nM | inhibition (Escherichia coli [2]): 95.9% | IC50 [3]: 823 nM | inhibition (Saccharomyces cerevisiae [4]): 73%

O=C(Sc1nncs1)c1ccc(-c2ccccc2Cl)o1
IC50 [1]: 5370 nM | inhibition (Escherichia coli [2]): 88.1% | IC50 [3]: 1350 nM | inhibition (Saccharomyces cerevisiae [4]): 82.1%

O=C(Sc1nncs1)c1ccc(-c2c(F)cccc2F)o1
IC50 [1]: 849 nM | inhibition (Escherichia coli [2]): 92.9% | IC50 [3]: 903 nM | inhibition (Saccharomyces cerevisiae [4]): 81.6%

O=C(Sc1nncs1)c1ccc(-c2ccccc2[N+](=O)[O-])o1
IC50 [1]: 341 nM | inhibition (Escherichia coli [2]): 90.5% | IC50 [3]: 223 nM | IC50 (L02): > 100 µM | inhibition (Saccharomyces cerevisiae [4]): 95.7%

Cc1nnc(SC(=O)c2ccc(-c3ccc(Cl)cc3)o2)s1
IC50 [1]: 695 nM | inhibition (Escherichia coli [2]): 77.8% | inhibition (Saccharomyces cerevisiae [4]): 48.8%

Cc1nnc(SC(=O)c2ccc(-c3ccc(F)cc3F)o2)s1
IC50 [1]: 357 nM | inhibition (Escherichia coli [2]): 86.7% | IC50 [3]: 1940 nM | inhibition (Saccharomyces cerevisiae [4]): 65.8%

Cc1nnc(SC(=O)c2ccc(-c3ccccc3F)o2)s1
IC50 [1]: 307 nM | inhibition (Escherichia coli [2]): 96.6% | IC50 [3]: 2740 nM | inhibition (Saccharomyces cerevisiae [4]): 69.9%

COc1ccc(-c2ccc(C(=O)Sc3nncs3)o2)cc1
IC50 [1]: 533 nM | inhibition (Escherichia coli [2]): 93% | IC50 [3]: 239 nM | inhibition (Saccharomyces cerevisiae [4]): 74.4%

Cc1nnc(SC(=O)c2ccc(-c3cccc([N+](=O)[O-])c3)o2)s1
IC50 [1]: 1200 nM | inhibition (Escherichia coli [2]): 92.5% | inhibition (Saccharomyces cerevisiae [4]): 20.1%

O=C(O)[C@@H](O)[C@H]1OC(=O)[C@H](O)[C@H]1O [D-SACCHARIC ACID 1,4-LACTONE]
IC50 [1]: 67300 nM | inhibition (Escherichia coli [2]): 11.6% | Ki [8]: 30.9 µM

O=C(Sc1nncs1)c1ccc(-c2ccc(Cl)cc2)o1
IC50 [1]: 2080 nM | Ki [7]: 0.05 µM | inhibition (Escherichia coli [2]): 92% | IC50 [3]: 186 nM | IC50 (L02): 83.3 µM | inhibition (Saccharomyces cerevisiae [4]): 68.9% | Ratio IC50 (Saccharomyces cerevisiae [9]): 2800

— ChEMBL document CHEMBL4813964, “2,5-Disubstituted furan derivatives containing 1,3,4-thiadiazole moiety as potent α-glucosidase and E. coli β-glucuronidase inhibitors” (Eur J Med Chem, 2021)
